From patent US20020045606A1, “Esters of vitamin D3 and uses thereof” (priority 1999, published 2002)

How the values were obtained:
UMR 106 cells [1] = assay: Metabolism of 1α,25(OH)2-16-ene-D3 analogs into less polar fatty acid ester metabolites in bone cells; format: in vitro ADME, rat; conditions: 10 μM analog incubated 24 h in UMR 106 cells; HPLC (FIG. 1)
Protocol: As described herein, various analogs of 1α,25(OH)2-D3, such as 1α,25(OH)2-16-ene-D3 analogs are metabolized into less polar metabolites in the rat osteosarcoma cell line UMR 106. UMR 106 cells were cultured in an humidified atmosphere at 37° C. in 95% air and 5% CO2. MacCoy's culture medium, containing 10% fetal calf serum (FCS), antibiotics (100 IU/mL penicillin and 100 μg/mL streptomycin) and […], was used. Cells became confluent ten days after seeding, and were then incubated with analog. Samples (structures shown in Table 2) of 1α,25(OH)2-16-ene-D3, 1α,25(OH)2-16-ene-3-epi-D3, 1α,25(OH)2-16-ene-20-epi-D3, 1α,25(OH)2-16-ene-20-epi-3-epi-D3, and 1α,25(OH)2-16-ene-23-yne-D3 were dissolved in ethanol to a final concentration of 10 μM and incubated in 50 mL for 24 h. Each analog was incubated in three culture bottles. Incubation was stopped by adding 10 mL methanol to each culture bottle. Culture bottles were stored at −20° C.
Lipid extraction was initiated by first adding two volumes of methanol to each culture bottle from Example I. The protein precipitate was separated from the supernatant by centrifugation at 3000 rpm at 4° C. for 15 min. The supernatant was mixed with four volumes of dichloromethane in a separatory funnel. The lower organic phase was collected and dried under nitrogen gas at 50° C. After reconstitution in 10% isopropanol/hexane, the lipid extract was analyzed by high-performance liquid chromatography (HPLC).
HPLC was performed with a Waters System Controller (Model 600E) equipped with a photodiode array detector (Model PDA 990) to monitor UV absorption at 265 nm. A Zorbax SIL 9.4×250 mm column (DuPont, Wilmington, Del.) was used for all straight phase systems. The corresponding analog was added to each lipid extract and the solutions were then subjected to a straight phase HPLC system using 10% isopropanol/hexane at a flow rate of 2 mL/min. (HPLC system I). Fractions were collected from 0 min. to 12 min. These fractions were further subjected to a straight phase HPLC system using 2% isopropanol/hexane at a flow rate of 2 mL/min. (HPLC system II).

UMR 106 cells [2] = assay: Distribution of esters and substrates between cells and media, UMR 106; format: in vitro ADME, rat; conditions: lipid extraction from media and cells separately, HPLC system I
Protocol: Peaks H2-A and H3-A were obtained and purified as described in Example II. In addition, UMR 106 cells were incubated with 1α,25(OH)2-16-ene-20-epi-D3 and 1α,25(OH)2-16-ene-20-epi-3-epi-D3, as described in Example I.
The lipid extraction was carried out from media and cells separately and together, as described in Example II. HPLC was performed with a Waters System Controller (Model 600E) equipped with a photodiode array detector (Model PDA 990) to monitor UV absorption at 265 nm. A Zorbax SIL 9.4×250 mm column (DuPont, Wilmington, Del.) was used for all straight phase systems. Each lipid extract was analyzed using HPLC system I.

Row | distribution between cells and media (UMR 106 cells [2]) | Structure (SMILES) | amount of less polar fatty acid ester metabolites produced (UMR 106 cells [1])
1 | – | C=C1/C(=C\C=C2/CCC[C@]3(C)C([C@H](C)CCCC(C)(C)O)=CCC23)C[C@H](O)C[C@@H]1O (stereo partly drawn) [1α,25(OH)2-16-ene-3-epi-D3] | slightly greater amounts of one of the less polar metabolites
2 | distributed primarily in the media | C=C1/C(=C\C=C2/CCC[C@]3(C)C([C@@H](C)CCCC(C)(C)O)=CCC23)C[C@H](O)C[C@@H]1O (stereo partly drawn) [1α,25(OH)2-16-ene-20-epi-3-epi-D3] | enhanced even further
3 | distributed primarily in the media | C=C1/C(=C\C=C2/CCC[C@]3(C)C([C@@H](C)CCCC(C)(C)O)=CCC23)C[C@@H](O)C[C@@H]1O (stereo partly drawn) [1α,25(OH)2-16-ene-20-epi-D3] | a greater increase in the amount of the less polar fatty acid ester metabolites
4 | – | C=C1/C(=C\C=C2/CCC[C@]3(C)C([C@@H](C)CC#CC(C)(C)O)=CCC23)C[C@@H](O)C[C@@H]1O (stereo partly drawn) [1α,25(OH)2-16-ene-23-yne-D3] | reduced
5 | – | C=C1/C(=C\C=C2/CCC[C@]3(C)C([C@H](C)CCCC(C)(C)O)=CCC23)C[C@@H](O)C[C@@H]1O (stereo partly drawn) [1α,25(OH)2-16-ene-D3] | production of the less polar fatty acid ester metabolites
